The source made the active and inactive calls.
How the values were obtained:
[1] = target: T1, Orexin/Hypocretin receptor type 1 (Homo sapiens, UniProt O43613); assay: (§1) Fluorescence-based cell-based high throughput dose response assay for antagonists of the orexin 1 receptor (OX1R; HCRTR1). [Related pubchem assays (depositor defined):AID434989, AID435008, AID463079, AID485270, AID492963, AID492964, AID492965, AID493232, AID504717, AID504718]; format: functional
T1 sequence (O43613 whole entry): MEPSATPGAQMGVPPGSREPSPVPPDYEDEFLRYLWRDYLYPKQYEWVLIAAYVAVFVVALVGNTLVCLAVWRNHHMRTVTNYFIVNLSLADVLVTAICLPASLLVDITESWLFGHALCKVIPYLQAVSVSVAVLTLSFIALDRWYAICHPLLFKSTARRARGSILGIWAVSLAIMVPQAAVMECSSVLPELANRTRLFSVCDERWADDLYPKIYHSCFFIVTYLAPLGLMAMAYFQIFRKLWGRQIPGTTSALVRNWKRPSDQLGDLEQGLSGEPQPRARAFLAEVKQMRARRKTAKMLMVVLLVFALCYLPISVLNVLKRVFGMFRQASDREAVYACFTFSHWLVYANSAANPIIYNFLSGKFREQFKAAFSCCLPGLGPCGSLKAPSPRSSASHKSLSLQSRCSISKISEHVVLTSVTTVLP

[2] = target: T1, Orexin/Hypocretin receptor type 1; assay: as §1, with “Homogeneous Time Resolved Fluorescence (HTRF)-based” for “Fluorescence-based”; format: functional
[3] = (§2) Counterscreen for antagonists of the orexin 1 receptor (OX1R; HCRTR1): Fluorescence-based cell-based high throughput dose response assay to identify antagonists of the parental CHO cell line. [Related pubchem assays (depositor defined):AID434989, AID435008, AID463079, AID485270, AID492963, AID492964, AID492965, AID493232, AID504699, AID504701]; format: functional
CHO-K1 = assay: as §2, with “Homogeneous time resolved fluorescence (HTRF)-based” for “Fluorescence-based”, “cell-based” for “cell-based high throughput”, “CHO-K1” for “CHO”; format: functional; conditions: Cricetulus griseus;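 further: potency for inhibition of ATP-stimulated IP1 production as antagonists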
[4] = Luminescence Cell-Based Dose Retest to Confirm Inhibitors of Cancer Stem Cells. [Related pubchem assays (depositor defined):AID2717, AID2721]; format: functional; conditions: Homo sapiens
Apelin receptor = Apelin receptor (Homo sapiens, UniProt P35414); assay: apelin receptor antagonists, arrestin read-out – cell-based, luminescent, enzyme-fragment complementation, selectivity assay for CCR6 antagonist project, SAR follow-up (AID 588359); format: functional
Apelin receptor, sequence (P35414 whole entry, the tested form may be a part): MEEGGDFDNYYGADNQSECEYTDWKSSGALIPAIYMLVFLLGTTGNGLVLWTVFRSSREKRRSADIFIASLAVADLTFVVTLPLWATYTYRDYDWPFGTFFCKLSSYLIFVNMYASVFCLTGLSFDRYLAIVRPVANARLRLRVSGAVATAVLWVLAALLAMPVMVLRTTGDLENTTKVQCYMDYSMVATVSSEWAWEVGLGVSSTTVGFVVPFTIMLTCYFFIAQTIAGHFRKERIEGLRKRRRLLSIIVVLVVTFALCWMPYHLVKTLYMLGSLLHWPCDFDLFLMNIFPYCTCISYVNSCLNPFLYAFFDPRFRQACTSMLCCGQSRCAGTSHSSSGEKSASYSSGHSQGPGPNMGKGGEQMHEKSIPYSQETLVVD

Beta-galactosidase = Beta-galactosidase (Escherichia coli, UniProt Q8VNN2); assay: detection-enzyme interference by beta-gal modulators – biochemical, E. coli enzyme, set 3, artefact control for CCR6 antagonist project, dose response (AID 504712); format: functional
Beta-galactosidase, sequence (Q8VNN2 whole entry): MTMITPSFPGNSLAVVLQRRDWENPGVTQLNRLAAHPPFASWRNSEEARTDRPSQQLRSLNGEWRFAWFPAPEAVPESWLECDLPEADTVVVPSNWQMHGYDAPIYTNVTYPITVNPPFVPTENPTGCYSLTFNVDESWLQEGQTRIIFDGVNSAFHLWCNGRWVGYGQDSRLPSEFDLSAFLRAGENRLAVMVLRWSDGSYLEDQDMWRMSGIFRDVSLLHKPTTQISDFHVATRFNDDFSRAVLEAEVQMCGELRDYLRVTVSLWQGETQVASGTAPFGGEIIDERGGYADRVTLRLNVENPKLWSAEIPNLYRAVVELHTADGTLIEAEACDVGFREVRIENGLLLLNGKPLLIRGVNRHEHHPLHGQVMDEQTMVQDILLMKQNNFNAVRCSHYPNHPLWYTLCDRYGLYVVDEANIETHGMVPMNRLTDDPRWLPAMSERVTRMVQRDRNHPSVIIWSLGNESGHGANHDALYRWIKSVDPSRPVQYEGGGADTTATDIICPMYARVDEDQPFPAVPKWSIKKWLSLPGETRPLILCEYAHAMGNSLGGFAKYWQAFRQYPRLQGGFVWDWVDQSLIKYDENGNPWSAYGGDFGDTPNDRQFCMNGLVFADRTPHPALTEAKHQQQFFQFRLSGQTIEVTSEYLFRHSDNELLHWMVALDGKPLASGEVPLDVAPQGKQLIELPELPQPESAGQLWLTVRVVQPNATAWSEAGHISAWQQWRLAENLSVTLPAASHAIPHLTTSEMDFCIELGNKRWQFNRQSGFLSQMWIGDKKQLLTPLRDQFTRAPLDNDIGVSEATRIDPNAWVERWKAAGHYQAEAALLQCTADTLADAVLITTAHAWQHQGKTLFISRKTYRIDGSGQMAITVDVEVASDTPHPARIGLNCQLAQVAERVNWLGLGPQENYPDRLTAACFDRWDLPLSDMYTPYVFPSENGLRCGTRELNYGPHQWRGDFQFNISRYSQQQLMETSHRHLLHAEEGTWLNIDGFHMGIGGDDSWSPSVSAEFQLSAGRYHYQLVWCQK

HEK293 [5] = assay: cells; conditions: Homo sapiens
HEK293 [6] = assay: cells; conditions: Homo sapiens; remark: listed apart in the source
[7] = target: Induced myeloid leukemia cell differentiation protein Mcl-1 (Homo sapiens, UniProt Q07820); format: functional
Induced myeloid leukemia cell differentiation protein Mcl-1, sequence (Q07820 whole entry): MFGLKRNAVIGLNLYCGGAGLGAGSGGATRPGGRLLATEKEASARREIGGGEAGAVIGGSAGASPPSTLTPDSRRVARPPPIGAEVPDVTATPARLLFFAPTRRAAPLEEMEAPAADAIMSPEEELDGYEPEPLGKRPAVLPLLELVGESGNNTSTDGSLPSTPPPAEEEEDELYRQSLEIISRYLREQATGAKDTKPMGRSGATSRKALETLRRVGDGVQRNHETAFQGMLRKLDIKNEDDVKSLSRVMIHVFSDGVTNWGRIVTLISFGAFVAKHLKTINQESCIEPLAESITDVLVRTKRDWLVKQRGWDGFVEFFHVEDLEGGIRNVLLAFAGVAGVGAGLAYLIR

[8] = target: T2, Replicative DNA helicase DnaB (Mycobacterium tuberculosis, UniProt P9WMR3); assay: DnaB intein splicing inhibitors, dose response, biochemical, cell-free fluorescence (AID 449749); format: functional
T2 sequence (P9WMR3 whole entry): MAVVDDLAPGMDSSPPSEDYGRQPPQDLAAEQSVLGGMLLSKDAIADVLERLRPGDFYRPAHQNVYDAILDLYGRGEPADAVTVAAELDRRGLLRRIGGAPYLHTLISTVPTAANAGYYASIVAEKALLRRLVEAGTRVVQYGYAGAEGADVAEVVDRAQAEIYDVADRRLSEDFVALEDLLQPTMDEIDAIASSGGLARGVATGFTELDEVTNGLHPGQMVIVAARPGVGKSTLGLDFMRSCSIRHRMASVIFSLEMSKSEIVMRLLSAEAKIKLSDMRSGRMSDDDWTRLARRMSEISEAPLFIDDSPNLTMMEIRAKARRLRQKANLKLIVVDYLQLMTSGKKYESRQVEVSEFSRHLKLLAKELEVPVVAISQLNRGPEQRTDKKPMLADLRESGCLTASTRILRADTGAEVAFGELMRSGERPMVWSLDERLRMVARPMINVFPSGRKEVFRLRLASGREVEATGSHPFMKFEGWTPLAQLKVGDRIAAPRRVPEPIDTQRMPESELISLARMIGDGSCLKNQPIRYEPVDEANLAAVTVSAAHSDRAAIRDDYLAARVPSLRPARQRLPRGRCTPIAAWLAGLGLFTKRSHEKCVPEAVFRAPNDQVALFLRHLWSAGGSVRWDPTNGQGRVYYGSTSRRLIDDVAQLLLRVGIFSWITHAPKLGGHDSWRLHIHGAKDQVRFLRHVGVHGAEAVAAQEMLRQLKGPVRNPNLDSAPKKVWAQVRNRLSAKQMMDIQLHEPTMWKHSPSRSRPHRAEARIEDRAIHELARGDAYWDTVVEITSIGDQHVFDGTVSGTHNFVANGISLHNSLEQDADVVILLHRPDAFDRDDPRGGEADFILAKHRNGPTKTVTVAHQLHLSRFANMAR

Protein RecA = target: T3, Protein RecA (Mycobacterium tuberculosis, UniProt P9WHJ3); assay: Fluorescence Cell-Free Homogeneous Dose Retest to Identify Inhibitors of RecA-Intein Splicing Activity. [Related pubchem assays (depositor defined):AID2097, AID2223, AID489010, AID492950]; format: functional
T3 sequence (P9WHJ3 whole entry): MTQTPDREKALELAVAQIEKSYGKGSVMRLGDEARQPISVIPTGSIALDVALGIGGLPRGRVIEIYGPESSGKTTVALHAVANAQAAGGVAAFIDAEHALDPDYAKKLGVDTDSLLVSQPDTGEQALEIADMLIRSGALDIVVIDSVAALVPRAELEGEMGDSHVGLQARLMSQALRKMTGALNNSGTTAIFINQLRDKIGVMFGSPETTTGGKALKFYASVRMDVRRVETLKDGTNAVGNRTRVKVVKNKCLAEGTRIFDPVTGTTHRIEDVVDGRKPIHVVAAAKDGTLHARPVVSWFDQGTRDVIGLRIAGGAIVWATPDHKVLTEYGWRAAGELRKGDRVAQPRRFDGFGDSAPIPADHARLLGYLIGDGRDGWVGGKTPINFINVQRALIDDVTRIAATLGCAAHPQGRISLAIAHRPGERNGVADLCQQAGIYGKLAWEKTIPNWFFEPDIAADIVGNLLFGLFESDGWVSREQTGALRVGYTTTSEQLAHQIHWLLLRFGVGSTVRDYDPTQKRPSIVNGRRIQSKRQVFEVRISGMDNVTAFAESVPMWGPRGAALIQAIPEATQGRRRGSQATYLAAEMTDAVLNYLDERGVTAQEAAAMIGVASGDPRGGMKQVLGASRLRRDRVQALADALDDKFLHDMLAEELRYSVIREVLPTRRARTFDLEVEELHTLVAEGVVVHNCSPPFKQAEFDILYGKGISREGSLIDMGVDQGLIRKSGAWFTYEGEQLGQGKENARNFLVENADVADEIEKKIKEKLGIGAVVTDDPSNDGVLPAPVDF

Paired box protein Pax-8 = Paired box protein Pax-8 (Homo sapiens, UniProt Q06710); assay: PAX8 transcriptional activity inhibition in RMG-I – RMG-I cells, luciferase, cherry-pick, dose response (AID 687027); format: functional, cell-based;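 further: luciferase reporter driven by Pax8 target thyroperoxidase promoter measured by SteadyGlo luminescence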
Paired box protein Pax-8, sequence (Q06710 whole entry): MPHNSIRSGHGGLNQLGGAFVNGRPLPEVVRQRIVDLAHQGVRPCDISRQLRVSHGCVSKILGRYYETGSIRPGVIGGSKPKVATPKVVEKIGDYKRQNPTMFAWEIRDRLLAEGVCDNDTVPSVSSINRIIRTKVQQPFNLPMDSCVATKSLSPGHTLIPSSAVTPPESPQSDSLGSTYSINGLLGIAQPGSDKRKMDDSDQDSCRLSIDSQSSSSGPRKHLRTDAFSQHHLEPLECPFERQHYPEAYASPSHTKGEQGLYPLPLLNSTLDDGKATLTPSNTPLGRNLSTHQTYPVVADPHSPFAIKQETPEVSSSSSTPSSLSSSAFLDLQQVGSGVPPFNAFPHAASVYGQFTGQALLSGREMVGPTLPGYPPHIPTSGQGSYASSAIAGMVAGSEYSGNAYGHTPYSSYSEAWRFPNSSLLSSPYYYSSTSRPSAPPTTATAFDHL

For `Cc1ccc(O)c(NC(=O)c2cc(-c3ccccc3Cl)on2)c1`, the IC50 [1] was > 49.8 µM (inactive), the IC50 [2] was 7.23 µM (active) and the IC50 [3] was > 49.8 µM (inactive). The IC50 (CHO-K1) was > 66.3 µM (inactive).
For `Cc1sc2nc(SCCN(C)C)n(-c3ccccc3)c(=O)c2c1-c1ccc(F)cc1`, the AC50 [4] was 7.17 µM (active), the IC50 (Apelin receptor) was 30.9 µM (inactive) and the IC50 (Beta-galactosidase) was > 66.6 µM (inactive).
In the case of `CCCCC(=O)NC(=S)Nc1cccc(Cl)c1N1CCCCC1`, the EC50 (HEK293 [5]) is reported as > 59.7 µM (inactive) and the EC50 (HEK293 [6]) is reported as > 59.7 µM (inactive).
For `CCN(CC)S(=O)(=O)c1cc(NC(=O)Cn2ncc(Cl)c(Cl)c2=O)ccc1C`, the IC50 [7] was 4.21 µM (active), the AC50 [8] was 11.8 µM (active) and the EC50 (HEK293 [5]) was > 59.6 µM (inactive). The EC50 (Protein RecA) was 14.5 µM (active), the AC50 (Paired box protein Pax-8) was 4.84 µM (active) and the EC50 (HEK293 [6]) was > 59.6 µM (inactive).

Reference: ChEMBL document CHEMBL1201862, “PubChem BioAssay data set” (2004)
